Reference: patent US20250025443A1, “COMPOUNDS AND METHODS FOR TREATING CORONA VIRUSES” (CLEAR CREEK BIO, INC., priority 2021, published 2025)

The compounds below were run against SARS-CoV-2 Papain-Like Protease (PLpro) (Severe acute respiratory syndrome coronavirus 2 (2019-nCoV) (SARS-CoV-2), UniProt P0DTD1) (assay: biochemical). Conditions: PLpro IC50, PLpro enzymatic fluorescence assay; class symbols.

In the case of `Cc1ccc(OC[C@@H]2CCN2C)cc1C(=O)NC1(c2cc3ccccc3c3ccccc23)CC1` [Compound 569, (S)-2-Methyl-5-((1-methylazetidin-2-yl)methoxy)-N-(1-(phenanthren-9-yl)cyclopropyl)benzamide], the IC50 is reported as > 5000 nM.

Same assay, conditions: PLpro enzymatic fluorescence assay; class symbols; read-out: PLpro IC50

`Cc1ccc(OCC2CCN2C)cc1C(=O)NC1(c2c(C)ccc3ccccc23)CC1` (stereo not shown) [Compound 458, 2-Methyl-5-((1-methylazetidin-2-yl)methoxy)-N-(1-(2-methylnaphthalen-1-yl)cyclopropyl)benzamide] and `Cc1cc(C2(NC(=O)c3cc(OC[C@@H]4CCN4C)ccc3C)CC2)c2ccc(C)nc2c1` [Compound 802, (S)-N-(1-(2,7-Dimethylquinolin-5-yl)cyclopropyl)-2-methyl-5-((1-methylazetidin-2-yl)methoxy)benzamide] cannot be ordered by IC50: < 100 nM for the first, < 100 nM for the second.

`Cc1ccc(OC[C@@H]2CCN2C)cc1C(=O)NC1(c2cc(/C=C/C3CC3)cc3ncccc23)CC1` [Compound 684, (S,E)-N-(1-(7-(2-Cyclopropylvinyl)quinolin-5-yl)cyclopropyl)-2-methyl-5-((1-methylazetidin-2-yl)methoxy)benzamide] and `Cc1ccc(OC[C@@H]2CCN2C)cc1C(=O)NC1(c2cc(-c3nccs3)cc3ncccc23)CC1` [Compound 590, (S)-2-Methyl-5-((1-methylazetidin-2-yl)methoxy)-N-(1-(7-(thiazol-2-yl)quinolin-5-yl)cyclopropyl)benzamide] cannot be ordered by IC50: < 100 nM for the first, < 100 nM for the second.

`C=Cc1cc(C2(NC(=O)c3cc(OC[C@@H]4CCN4)ccc3C)CC2)c2cccnc2c1` [Compound 612, (S)-5-(Azetidin-2-ylmethoxy)-2-methyl-N-(1-(7-vinylquinolin-5-yl)cyclopropyl)benzamide] and `C=C(C)c1cc(C2(NC(=O)c3cc(OC[C@@H]4CCCN4)ccc3C)CC2)c2cccnc2c1` [Compound 715, (S)-2-Methyl-N-(1-(7-(prop-1-en-2-yl)quinolin-5-yl)cyclopropyl)-5-(pyrrolidin-2-ylmethoxy)benzamide] cannot be ordered by IC50: < 100 nM for the first, < 100 nM for the second.

`Cc1nnc(-c2cc(C3(NC(=O)c4cc(OC[C@@H]5CCN5)ccc4C)CC3)c3cccnc3c2)o1` [Compound 680, (S)-5-(Azetidin-2-ylmethoxy)-2-methyl-N-(1-(7-(5-methyl-1,3,4-oxadiazol-2-yl)quinolin-5-yl)cyclopropyl)benzamide] and `Cc1ccc(OC[C@@H]2CCN2)cc1C(=O)NC1(c2cc(-c3cccs3)cc3ncccc23)CC1` [Compound 608, (S)-5-(Azetidin-2-ylmethoxy)-2-methyl-N-(1-(7-(thiophen-2-yl)quinolin-5-yl)cyclopropyl)benzamide] cannot be ordered by IC50: < 100 nM for the first, < 100 nM for the second.

`Cc1ccc(OC[C@@H](C)N)cc1C(=O)NC1(c2cc(Br)cc3ccccc23)CC1` [Compound 540, (R)-5-(2-Aminopropoxy)-N-(1-(3-bromonaphthalen-1-yl)cyclopropyl)-2-methylbenzamide] and `COc1cc(C2(NC(=O)c3cc(OC[C@H]4C[C@H](F)CN4)ccc3C)CC2)c2ccccc2c1` [Compound 510, 5-(((2R,4S)-4-Fluoropyrrolidin-2-yl)methoxy)-N-(1-(3-methoxynaphthalen-1-yl)cyclopropyl)-2-methylbenzamide] cannot be ordered by IC50: < 100 nM for the first, < 100 nM for the second.

Same assay, conditions: SARS-CoV-2 PLpro enzymatic fluorescence assay; read-out: PLpro IC50

`Cc1cc(C2(NC(=O)c3cc(OCCN(C)C)ccc3C)CC2)c2ccccc2c1` [Compound 401, 5-(2-(Dimethylamino)ethoxy)-2-methyl-N-(1-(3-methylnaphthalen-1-yl)cyclopropyl)benzamide] and `Cc1ccc(OCCN(C)C)cc1C(=O)NC1(c2cc(C#N)cc3ccccc23)CC1` [Compound 443, N-(1-(3-Cyanonaphthalen-1-yl)cyclopropyl)-5-(2-(dimethylamino)ethoxy)-2-methylbenzamide] cannot be ordered by IC50: < 100 nM for the first, < 100 nM for the second.

`C=C(C)c1cc(C2(NC(=O)c3cc(OCC4CCN4C)ccc3C)CC2)c2ccccc2c1` (stereo not shown) [Compound 508, 2-Methyl-5-((1-methylazetidin-2-yl)methoxy)-N-(1-(3-(prop-1-en-2-yl)naphthalen-1-yl)cyclopropyl)benzamide] and `Cc1ccc(OCC2CCN2C)cc1C(=O)NC1(c2cc(-c3ccccc3)cc3ccccc23)CC1` (stereo not shown) [Compound 475, 2-Methyl-5-((1-methylazetidin-2-yl)methoxy)-N-(1-(3-phenylnaphthalen-1-yl)cyclopropyl)benzamide] cannot be ordered by IC50: < 100 nM for the first, < 100 nM for the second.

Compared with `Cc1ccc(OC2CCN(C(=O)OC(C)(C)C)CC2)cc1C(=O)N[C@H](C)c1cccc2ccccc12` [Compound 164, (R)-tert-Butyl 4-(4-methyl-3-((1-(naphthalen-1-yl)ethyl)carbamoyl)phenoxy)piperidine-1-carboxylate], `Cc1ccc(OCC2CCN2C(C)C)cc1C(=O)NC1(c2cccc3ccccc23)CC1` (stereo not shown) [Compound 323, 5-((1-Isopropylazetidin-2-yl)methoxy)-2-methyl-N-(1-(naphthalen-1-yl)cyclopropyl)benzamide] is lower in IC50: 1000 to 5000 nM for the first, < 100 nM for the second. The second is the more potent here.

Compared with `Cc1ccc(OCC2CCN2C)cc1C(=O)NC1(c2cccc3ccc(C(=O)O)cc23)CC1` (stereo not shown) [Compound 465, 8-(1-(2-Methyl-5-((1-methylazetidin-2-yl)methoxy)benzamido)cyclopropyl)-2-naphthoic acid], `Cc1ccc(OCC2CCCCN2C)cc1C(=O)NC1(c2cccc3ccccc23)CC1` (stereo not shown) [Compound 288, 2-Methyl-5-((1-methylpiperidin-2-yl)methoxy)-N-(1-(naphthalen-1-yl)cyclopropyl)benzamide] is lower in IC50: 1000 to 5000 nM for the first, 100 to 1000 nM for the second. The second is the more potent here.

`Cc1ccc(OCCN(C)C)cc1C(=O)NC1(c2cccc3ccncc23)CC1` [Compound 333, 5-(2-(Dimethylamino)ethoxy)-N-(1-(isoquinolin-8-yl)cyclopropyl)-2-methylbenzamide] and `Cc1ccc(OCCN(C)C)cc1C(=O)NC1(c2cccc(Cl)c2Cl)CC1` [Compound 335, N-(1-(2,3-Dichlorophenyl)cyclopropyl)-5-(2-(dimethylamino)ethoxy)-2-methylbenzamide] fall in the same range of IC50: 100 to 1000 nM for the first, 100 to 1000 nM for the second.

`Cc1ccc(OC[C@H]2CCCN2C)cc1C(=O)NC1(c2cccc3ncccc23)CC1` [Compound 382, (R)-2-Methyl-5-((1-methylpyrrolidin-2-yl)methoxy)-N-(1-(quinolin-5-yl)cyclopropyl)benzamide] and `Cc1ccc(OC[C@H]2CCN2)cc1C(=O)NC1(c2cccc3ncccc23)CC1` [Compound 383, (R)-5-(Azetidin-2-ylmethoxy)-2-methyl-N-(1-(quinolin-5-yl)cyclopropyl)benzamide] cannot be ordered by IC50: < 100 nM for the first, < 100 nM for the second.

First: COCC(NC(=O)c1cc([N+](=O)[O-])ccc1C)c1cccc2ccccc12 (stereo not shown) [Compound 108, N-(2-Methoxy-1-(naphthalen-1-yl)ethyl)-2-methyl-5-nitrobenzamide]
Second: Cc1ccc(OCCCN)cc1C(=O)NC1(c2cccc3ccccc23)CC1 [Compound 316, 5-(3-Aminopropoxy)-2-methyl-N-(1-(naphthalen-1-yl)cyclopropyl)benzamide]
The IC50 of the first is higher: > 5000 nM for the first, 100 to 1000 nM for the second.

First: CCSc1cc(C2(NC(=O)c3cc(OCCN(C)C)ccc3C)CC2)c2ccccc2c1 [Compound 408, 5-(2-(Dimethylamino)ethoxy)-N-(1-(3-(ethylthio)naphthalen-1-yl)cyclopropyl)-2-methylbenzamide]
Second: Cc1ccc(OCCN(C)C)cc1C(=O)NC1(c2ccccc2C(F)(F)F)CC1 [Compound 321, 5-(2-(Dimethylamino)ethoxy)-2-methyl-N-(1-(2-(trifluoromethyl)phenyl)cyclopropyl)benzamide]
The IC50 of the first is lower: < 100 nM for the first, 100 to 1000 nM for the second.

First: Cc1cc2cc(CN(C)C)[nH]c2cc1C(=O)NC1(c2cccc3ccccc23)CC1 [Compound 173, 2-((Dimethylamino)methyl)-5-methyl-N-(1-(naphthalen-1-yl)cyclopropyl)-1H-indole-6-carboxamide]
Second: Cc1ccc(N(C)CCN(C)C)cc1C(=O)NC1(c2cccc3ccccc23)CC1 [Compound 421]
The IC50 of the first is higher: 100 to 1000 nM for the first, < 100 nM for the second.

First: c1ccc2c(C3(NCc4ccc5[nH]ncc5c4)CC3)cccc2c1 [Compound 178, N-((1H-indazol-5-yl)methyl)-1-(naphthalen-1-yl)cyclopropan-1-amine]
Second: Cc1ccc(N2CCN(CCO)CC2)cc1C(=O)NC1(c2cccc3ccccc23)CC1 [Compound 505, 5-(4-(2-Hydroxyethyl)piperazin-1-yl)-2-methyl-N-(1-(naphthalen-1-yl)cyclopropyl)benzamide]
The IC50 of the first is higher: > 5000 nM for the first, < 100 nM for the second.

Compared with `Cc1ccc(OCCNc2ccccc2)cc1C(=O)NC1(c2cccc3ccccc23)CC1` [Compound 315, 2-Methyl-N-(1-(naphthalen-1-yl)cyclopropyl)-5-(2-(phenylamino)ethoxy)benzamide], `Cc1ccc(OCCNCC(F)(F)F)cc1C(=O)NC1(c2cccc3ccccc23)CC1` [Compound 247, 2-Methyl-N-(1-(naphthalen-1-yl)cyclopropyl)-5-(2-((2,2,2-trifluoroethyl)amino)ethoxy)benzamide] is lower in IC50: 1000 to 5000 nM for the first, 100 to 1000 nM for the second.

`Cc1cc2nc[nH]c2cc1C(=O)N[C@H](C)c1cccc(-c2ccc(CN[C@H]3CC[C@@H](O)C3)s2)c1` [Compound 134, N-((R)-1-(3-(5-((((1S,3R)-3-hydroxycyclopentyl)amino)methyl)thiophen-2-yl)phenyl)ethyl)-5-methyl-1H-benzo[d]imidazole-6-carboxamide] and `Cc1cc2cc(CN(C)C)n(CO)c2cc1C(=O)N[C@H](C)c1cccc2ccccc12` [Compound 192, (R)-2-((Dimethylamino)methyl)-1-(hydroxymethyl)-5-methyl-N-(1-(naphthalen-1-yl)ethyl)-1H-indole-6-carboxamide] fall in the same range of IC50: 100 to 1000 nM for the first, 100 to 1000 nM for the second.

First: COc1cc(C2(NC(=O)c3cc(OC[C@H](C)N)ccc3C)CC2)c2cccnc2c1 [Compound 530, (S)-5-(2-Aminopropoxy)-N-(1-(7-methoxyquinolin-5-yl)cyclopropyl)-2-methylbenzamide]
Second: CC(c1cccc2ccccc12)N1CCc2ccc(NC(=O)Cc3ccccc3)cc2C1 (stereo not shown) [Compound 139, N-(2-(1-(Naphthalen-1-yl)ethyl)-1,2,3,4-tetrahydroisoquinolin-7-yl)-2-phenylacetamide]
The IC50 of the first is lower: < 100 nM for the first, > 5000 nM for the second.
